Patent US12503432B2, “Ionizable lipids for nucleic acid delivery” (Global Life Sciences Solutions Canada ULC, priority 2019, dated 2025)

Experiments:
[1] = TNS fluorescence assay: experimental pKa of formulated lipid nanoparticles; format: physicochemical; settings: experimental surface pKa of empty LNP, cationic lipid/DSPC/cholesterol/PEG-lipid (50/10/38.5/1.5)
Experimental: The pKa of each cationic lipid was determined in lipid nanoparticles using an assay based on fluorescence of 6-(p-Toluidino)-2-naphthalenesulfonic acid sodium salt (TNS, Sigma Aldrich), which is a fluorescent probe for the conformational state of proteins^5. Empty lipid nanoparticles comprising of cationic lipid/DSPC/cholesterol/PEG-lipid (50/10/38.5/1.5) in distilled water at a concentration of 3.125 mM total lipid are formulated using NanoAssemblr® Spark™, and were then was characterized for LNP quality on the Zetasizer™ using a 30× dilution with 1×PBS in the low volume cuvette. Lipid nanoparticles were further diluted 4× using distilled water to 0.781 mM total lipid. TNS was prepared as a 25 μM stock solution in distilled water. Then 6.4 μL of diluted LNP samples of 0.781 mM total lipid were mixed with 10 μL of diluted TNS to a final volume of 250 μL with buffer containing 10 mM HEPES, 10 mM MES, 10 mM NH4OAc and 130 mM NaCl where the pH ranged from 3 to 9 in 0.5 pH increments.
Samples were mixed thoroughly, and the fluorescence intensity was measured at room temperature in a BioTek™ Synergy™ H1 Hybrid Multi-Mode Monochromator™ Fluorescence Microplate Reader using excitation and emission wavelengths of 321 nm and 445 nm respectively. A sigmoidal best fit analysis was applied to the fluorescence data using GraphPad Prism™ software, and the pKa was measured as the pH at half-maximal fluorescence intensity.

primary human T cells = experiment: GFP mRNA LNP transfection of isolated primary human T cells, flow cytometry; format: cell-based; design: key to GFP Protein expression: Human T cell: *: The number of asterix symbols indicates protein expression levels interpreted by the inventors from quantitative data; **: The number of asterix symbols indicates protein expression levels interpreted by the inventors from quantitative data; ***: The number of asterix symbols indicates protein expression levels interpreted by the inventors from quantitative data; ****: The number of asterix symbols indicates protein expression levels interpreted by the inventors from quantitative data; *****: The number of asterix symbols indicates protein expression levels interpreted by the inventors from quantitative data; *******: The number of asterix symbols indicates protein expression levels interpreted by the inventors from quantitative data; settings: for GFP Protein expression: Human T cell: qualitative grade interpreted from quantitative data; for transfecting T cells in vitro, Mean Fluorescence Intensity (MFI): dose 500 ng, MC3 as control, FIG. 3
Experimental: Downstream processing and analysis of treated T cells were done with flow cytometry and ELISA. Reagents were from Stemcell Technologies, Vancouver, Canada unless otherwise stated. […] At 48H following LNP-mediated mRNA exposure, the treated T cells were harvested by transferring the cell suspensions to pre-labeled 1.5 mL tubes and centrifuged 300×G at 4 degrees C. for 10 minutes. Supernatant was removed and the pellet resuspended in PBS. An amount of 0.5 ul of BD Horizon™ Fixable Viability Stain 575V™ (BD Biosciences), was added, and the mixture incubated in the dark for 10 minutes at RT. This stain binds to intracellular amines of a permeable plasma cell membrane of a necrotic cell and can be used to differentiate a viable cell and a non-viable cell during a flow cytometry assay.
The cells were centrifuged again as before, then washed twice with 1 mL of Stain buffer (BSA, BD Pharminigen), and the washed pellet was placed in 100 μl BSA. The following antibodies were added to each tube of treated cells in 2 μl volumes: CD25, CD8, CD4, (PerCP-Cy™ 5.5 Mouse Anti Human CD25, BV786 Mouse Anti-Human CD8 Clone RPA-T8, and APC-Cy™7 Mouse Anti-Human CD4 Clone SK3, all from BD Pharmingen™) with the exception of the controls: in the eGFP only sample and viability control, no antibody was added. In the single stain compensation tubes, only one antibody per tube was added.
The tubes were incubated at 4 degrees C. for 30 min, whereupon 400 μl of stain buffer (BSA) was added, and the cells were centrifuged again. Cells were washed once with 1 mL of stain buffer and spun down again. Cell pellets were resuspended in 1 mL of stain buffer and added to pre-labeled flow tubes with cell strainer caps (Corning Falcon).
After transfection, flow cytometry was used to generate eGFP or EPO expression levels as well as MFI values for the studies. […]
After transfection, flow cytometry was used to general GFP expression levels as well as MFI values for the studies.
Ionizable lipids of the invention, and MC3, were compared in a composition of CT10 at an N/P ratio of 10 for their ability to induce transfection as measured by MFI of labeled mRNA in T cells (as measured by flow cytometry).
T Cells were prepared and treated as previously described using negative selection and the triple activation protocol.
In order to expose the isolated and activated T cells (Day 0) to the formulated mRNA, […] media, with 1 μg/mL of Recombinant Human ApoE4 (“ApoE”) (Peprotech Inc., Montreal, Canada).
The dose of mRNA LNP was calculated based upon Ribogreen™ assay results. T cells were counted through Trypan blue (Sigma) exclusion and diluted to 500,000 cells/mL. Briefly, in a 12 well plate, 1 mL was aliquoted into each well. ApoE was added to a final concentration of 1 μg/mL in each well. Based upon the calibration, the required amount of mRNA LNP was added (day 3 to 7), and the plate incubated for 48 hours.

| pKa [1] | SMILES | GFP Protein expression: Human T cell (primary human T cells) | transfecting T cells in vitro, Mean Fluorescence Intensity (MFI) (primary human T cells; CT10 composition) | transfection efficiency in T cells from different donors (primary human T cells; CT10, N/P 10, 48 h after treatment, six donors, FIG. 2) | Cell viability (primary human T cells; CT10, N/P 10, compared to untreated cells (control)) | transfection efficiency (primary human T cells; CT10 composition, N/P 10, LNP 7 days post activation, FIG. 1) |
| --- | --- | --- | --- | --- | --- | --- |
| 5.91 | CCCCCCCCC1CC1CCCCCCCCOCC(COC(=O)CC1CCC(OC(=O)CCCN(C)C)C1CC1CC1CC)OCCCCCCCCC1CC1CCCCCCCC (centres unmarked) [PNI 545] | ***** | – | – | – | – |
| 5.99 | CC/C=C\CC1C(CC(=O)OCCC(CCCCCCCC)OC(=O)C(CCCCCC)CCCCCCCC)CCC1OC(=O)C1(C)CCN(C)CC1 (centres unmarked) [PNI 565] | ******* | substantially as good or better than MC3 | – | – | – |
| 5.7 | CC/C=C\CC1C(CC(=O)OC(CCCCCCCCC2CC2CCCCCCCC)CCCCCCCCC2CC2CCCCCCCC)CCC1OC(=O)C1(C)CCN(C)CC1 (centres unmarked) [PNI 560] | **** | – | – | – | – |
| 5.52 | CC/C=C\CC1C(CC(=O)OCCC(CCCCCCCC)OC(=O)C(CCCCCC)CCCCCCCC)CCC1OC(=O)CCN(C)C (centres unmarked) [PNI 554] | *** | – | – | – | – |
| 6.11 | CC/C=C\CC1C(CC(=O)OCC(COCCCCCCCC/C=C\C/C=C\CCCCC)OCCCCCCCC/C=C\C/C=C\CCCCC)CCC1OC(=O)CCCN(CC)CC (centres unmarked) [PNI 542] | ***** | – | – | – | – |
| 6.18 | CC/C=C\CC1C(CC(=O)OC(CCCCCCCCC2CC2CCCCCCCC)CCCCCCCCC2CC2CCCCCCCC)CCC1OC(=O)CCCN(C)C (centres unmarked) [PNI 516] | ***** | – | – | – | – |
| 4.84 | CCCCCCCCC1CC1CCCCCCCCOCC(COC(=O)CC1CCC(OC(=O)CCN(C)C)C1CC1CC1CC)OCCCCCCCCC1CC1CCCCCCCC (centres unmarked) [PNI 546] | * | – | – | – | – |
| 5.68 | CC/C=C\CC1C(CC(=O)OCC(COCCCCCCCCC2CC2CCCCCCCC)OCCCCCCCCC2CC2CCCCCCCC)CCC1OC(=O)CCN(C)C (centres unmarked) [PNI 544] | *** | – | – | – | – |
| 6.1 | CC/C=C\CC1C(CC(=O)OCC(COCCCCCCCC/C=C\C/C=C\CCCCC)OCCCCCCCC/C=C\C/C=C\CCCCC)CCC1OC(=O)C1CCN(C)CC1 (centres unmarked) [PNI 132] | ******* | substantially as good or better than MC3 | – | – | – |
| 6.7 | CC/C=C\CC1C(CC(=O)OCC(COCCCCCCCC/C=C\C/C=C\CCCCC)OCCCCCCCC/C=C\C/C=C\CCCCC)CCC1OC(=O)CC1CCN(C)C1 (centres unmarked) [PNI 557] | *** | – | – | – | – |
| 5.27 | CC/C=C\CC1C(CC(=O)OC(CCCCCCCCC2CC2CCCCCCCC)CCCCCCCCC2CC2CCCCCCCC)CCC1OC(=O)CCN(C)C (centres unmarked) [PNI 549] | ** | – | – | – | – |
| 6.28 | CC/C=C\CC1C(CC(=O)OCC(COCCCCCCCC/C=C\C/C=C\CCCCC)OCCCCCCCC/C=C\C/C=C\CCCCC)CCC1OC(=O)CCCN1CCCC1 (centres unmarked) [PNI 558] | * | – | – | – | – |
| 5.16 | CC/C=C\CC1C(CC(=O)OCC(COCCCCCCCC/C=C\C/C=C\CCCCC)OCCCCCCCC/C=C\C/C=C\CCCCC)CCC1OC(=O)CC1CCCCN1C (centres unmarked) [PNI 559] | ** | – | – | – | – |
| 6.01 | CC/C=C\CC1C(CC(=O)OCC(COCCCCCCCC/C=C\C/C=C\CCCCC)OCCCCCCCC/C=C\C/C=C\CCCCC)CCC1OC(=O)C1(C)CCN(C)CC1 (centres unmarked) [PNI 123] | *** | – | – | – | – |
| 6.37 | CC/C=C\CC1C(CC(=O)OCC(COCCCCCCCC/C=C\C/C=C\CCCCC)OCCCCCCCC/C=C\C/C=C\CCCCC)CCC1OC(=O)CCCN(C)C (centres unmarked) [PNI 101] | **** | – | greater than those containing MC3 in six tested donors | unaffected | greater transfection efficiency than either DODMA or MC3 |
